Results reported in patent US4272530A, “Δ^1,3,5(10) -Estratrienes” (Roussel Uclaf, priority 1977, dated 1981).

Columns and labels:
[1] = biological target: T1, specific uterine reception of estradiol (uterus cytosol) (Mus musculus, UniProt P19785); test: hormonal receptor method of Raynaud et al.: displacement of tritiated estradiol in uterus cytosol; type: binding, mice
T1 construct: the uterus was removed and homogenized in a buffered solution; from tissue; host or cells: uterus cytosol (105,000 g supernatant) of immature female mice, 18 to 21 days old
T1 sequence (P19785 1-599): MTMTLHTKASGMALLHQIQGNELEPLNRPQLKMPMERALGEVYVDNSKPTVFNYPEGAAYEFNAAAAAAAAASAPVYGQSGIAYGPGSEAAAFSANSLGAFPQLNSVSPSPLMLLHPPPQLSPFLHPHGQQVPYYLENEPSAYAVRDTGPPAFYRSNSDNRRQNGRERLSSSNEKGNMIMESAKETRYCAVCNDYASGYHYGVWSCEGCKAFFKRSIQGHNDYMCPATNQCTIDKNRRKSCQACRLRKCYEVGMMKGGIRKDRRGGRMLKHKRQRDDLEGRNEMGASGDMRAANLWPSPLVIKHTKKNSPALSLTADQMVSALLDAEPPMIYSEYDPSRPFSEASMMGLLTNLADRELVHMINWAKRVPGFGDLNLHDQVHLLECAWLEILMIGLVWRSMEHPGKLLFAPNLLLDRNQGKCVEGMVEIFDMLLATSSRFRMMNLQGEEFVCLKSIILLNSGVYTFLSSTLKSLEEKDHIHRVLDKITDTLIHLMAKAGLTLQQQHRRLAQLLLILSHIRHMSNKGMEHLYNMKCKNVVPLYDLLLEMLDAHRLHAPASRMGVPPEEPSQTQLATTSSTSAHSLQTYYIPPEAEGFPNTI
Method: The estrogenic activity was determined for 11β-vinyl-17α-ethynyl-^1,3,5(10) -estratriene-3,17β-diol was determined by the hormonal receptor method of Raynaud et al. [J. Ster. Biochem., Vol. 6 (1975), p. 615-622]. Immature female mice aged 18 to 21 days old were sacrificed and the uterus was removed and homogenized in a buffered solution of […] of tromethamine, 0.25 M of saccharose and a pH of 7.4 with hydrochloric acid. The homogenate was centrifuged at 105,000 g per hour and the surnageant or cytosol was adjusted to a dilution of 1/25 (weight/volume). […] The radioactivity of the tritiated product R was determined in 2 hours by the technique of adsorption on carbondextran (1.25%-0.625%). The plots were the curves representing the percentage of tritiated product R as a function of the log of the concentration of cold product R or the test product and the I50 straight line parallel to the axis of the abcisses and ordinates [formula] B/T max. is the percentage of tied tritiated product R when the product is not added and B/T min. is the percentage of tied tritiated product R when the maximum amount of cold product R is added.

female mice = test: estrogenic (uterotrophic) activity by the method of Rubin, uterus weight; type: in vivo; conditions: for Weight of uterus: female mice 19-21 days old, killed on 4th day, control 11.4 ± 0.5
Method: The estrogenic activity of the product of Example 1 was also determined by the method of Rubin [Endocrinology, Vol. 49 (1951), p. 429] in which female mice 19-21 days old received once a day for 3 days a subcutaneous injection of the test product. The animals were killed on the 4th day and the uterus was removed, dissected and weighed. The test product was administered in a volume of 0.1 ml of oily solution at doses of 0.01γ, 0.03γ, 0.09γ and 0.27γ.

With `C#C[C@]1(O)CC[C@H]2[C@@H]3CCc4cc(O)ccc4[C@H]3[C@@H](C=C)C[C@@]21C` [Example 1, 11β-vinyl-17α-ethynyl-Δ^1,3,5(10) -estratriene-3,17β-diol] the “affinity for specific uterine reception of estradiol compared with estradiol” value ([1]; conclusion from Table III) was “greater affinity for specific uterine reception of estradiol than estradiol”, the “ARL (relative affinity of the test product)” value ([1]; immature female mouse uterus cytosol, tritiated estradiol, 25° C. for 5 hours, estradiol = 100) was 240 and the uterotrophic activity (female mice; conclusion from Table IV) was “clear uterotrophic activity”. For the same compound, the “Weight of uterus” value (female mice; dose 0.01γ subcutaneous once a day for 3 days) was 25.8 ± 1.7 mg, the “Weight of uterus” value (female mice; dose 0.03γ subcutaneous once a day for 3 days) was 90.1 ± 5.7 mg and the “Weight of uterus” value (female mice; dose 0.09γ subcutaneous once a day for 3 days) was 128.8 ± 12.1 mg. For the same compound, the “Weight of uterus” value (female mice; dose 0.27γ subcutaneous once a day for 3 days) was 107.6 ± 7.4 mg.
